One compound from patent US6465527B1, “Iodinated hydrocarbon pesticide” (priority 1999, dated 2002) can be followed below.

Entries after “also recorded” stand apart in the source; their conditions may differ.

Common to all, as to assay type: in vivo
Test [1] has as its system 'Brim' soybean [Glycine max]. The test is described as follows: Soybean growth in treated soil (Experiments 1 and 2). As to the method: Additionally, the nematicidal properties of iodinated hydrocarbons were investigated in greenhouse experiments with field soil infested with Meloidogyne arenaria and Heterodera Glycines. Chemicals were added directly to infested solid at rates <100 mg/Kg soil. Treated soil was kept moist (approximately 60 percent field capacity) and uncovered for 7-10 days when samples were collected, and the pots were planted with ‘Brim’ soybean, Glycine max. […] 1,2-diiodoethane (C2), 1,3-diiodopropane (C3), 1,4-diiodobutane (C4), 1,5-diiodopentane (C5), 1,6-diiodohexane (C6), and […] were applied to soil rates of 2.5, 5.0, 7.5, and 10 mg/Kg soil. All rates of C2 and C8 were ineffective in reducing M. arenaria juvenile (J2) populations in preplant samples. This was also true for C2 and J2 populations of H. glycines; however, […] rates ≧5.0 mg suppressed J2 populations of H. glycines. […] H. glycines J2 numbers in final soil samples were generally inversely related to rates for C3-C8. […] Applications of C3-C6 to soil increased shoot weights in a manner directly related to dosages but only in a curvilinear pattern.
In this experiment, the nematicidal properties of various diiodinated hydrocarbons were compared. The nematicidal properties of diiodinated C2-C8 normal hydrocarbons was assessed in a greenhouse experiment with field soil infested with Meloidogyne arenaria [Ma] and Heterodera glycines [Hg]. 1,2-diiodoethane [C2], 1,3-diiodopropane [C3], 1,4-diiodobutane [C4], 1.5-diiodopentane [C5], 1,6-diiodohexane [C6] and 1,8-diiodooctane [C8] were applied to soil at rates of 2.5, 5.0, 7.5, and 10.0 mgs/kg soil. The potted soil was kept moist in a greenhouse for 10 days when preplant samples were collected for analysis, and the pots were planted with ‘Brim’ soybean [Glycine max]. After 7 weeks of growth, the plants were removed and final soil samples taken. Data was collected on weights of fresh roots and shoots, root galling by Ma, and numbers of nematodes in soil and roots. All rates of C2 and C8 were ineffective in reducing Ma juvenile [J2] populations in the preplant samples. This was also true for C2 and J2 populations of Hg; however, C8 rates ≧5.0 mg suppressed J2 populations of Hg. […] Hg J2 numbers in final soil samples were generally inversely related to rates for C3-C8. This pattern of suppression in J2 numbers was also applicable to Ma in the final soil samples but only for C3-C6. […] Applications of C3-C6 to soil increased shoot weights in a manner directly related to dosages but non-linear in pattern.

The test system of a further test is Heterodera glycines. In words: Greenhouse nematicide test, diiodinated C2-C8 hydrocarbons in infested field soil (Experiments 1 and 2).
In the next test the test system is Meloidogyne arenaria. The test is described as above.
Where [2] appears, read: all rates (2.5, 5.0, 7.5, 10 mg/Kg soil).

With `ICCI` [1,2-diiodoethane], the “Shoot weights of soybean” value is on record as “increased shoot weights slightly” in test [1] (2.5 mg rate) and “no significant effect” in test [1] (rates higher than 2.5 mg). In addition, the figures for the “H. glycines J2 populations in preplant samples” value with Heterodera glycines (setting [2]) and in the test with Heterodera glycines (rates ≧5.0 mg) were “ineffective” and “suppressed”, respectively. In addition, in the test on Heterodera glycines (final soil samples after soybean growth, rates 2.5-10 mg/kg soil, listed as C2), the “H. glycines J2 numbers in final soil samples” value is recorded as “either no change in H. glycines J2 numbers or in increased numbers; also recorded: either no change in Hg J2 numbers or in increased numbers”. The “M. arenaria juvenile (J2) populations in preplant samples” value in the test on Meloidogyne arenaria (setting [2]) is “ineffective”. Further, the “M. arenaria J2 numbers in final soil samples” value with Meloidogyne arenaria (final soil samples after soybean growth, rates 2.5-10 mg/kg soil) is “increased directly with C2 dosage”.
